Results taken from patent publication US7781591B2, “Substituted 3-cyanopyridines as protein kinase inhibitors” (Wyeth LLC, priority 2006, dated 2010).
pIC50: −log10 of the molar value.

Each compound was assayed against T1, human PKCθ full length enzyme (Homo sapiens, UniProt Q04759) (assay: PKCθ IMAP assay (fluorescence polarization)). Details: not given.
T1 construct: human PKCθ full length enzyme (Panvera Cat# P2996); purchased Panvera P2996
Format: biochemical

T1 sequence (Q04759 whole entry): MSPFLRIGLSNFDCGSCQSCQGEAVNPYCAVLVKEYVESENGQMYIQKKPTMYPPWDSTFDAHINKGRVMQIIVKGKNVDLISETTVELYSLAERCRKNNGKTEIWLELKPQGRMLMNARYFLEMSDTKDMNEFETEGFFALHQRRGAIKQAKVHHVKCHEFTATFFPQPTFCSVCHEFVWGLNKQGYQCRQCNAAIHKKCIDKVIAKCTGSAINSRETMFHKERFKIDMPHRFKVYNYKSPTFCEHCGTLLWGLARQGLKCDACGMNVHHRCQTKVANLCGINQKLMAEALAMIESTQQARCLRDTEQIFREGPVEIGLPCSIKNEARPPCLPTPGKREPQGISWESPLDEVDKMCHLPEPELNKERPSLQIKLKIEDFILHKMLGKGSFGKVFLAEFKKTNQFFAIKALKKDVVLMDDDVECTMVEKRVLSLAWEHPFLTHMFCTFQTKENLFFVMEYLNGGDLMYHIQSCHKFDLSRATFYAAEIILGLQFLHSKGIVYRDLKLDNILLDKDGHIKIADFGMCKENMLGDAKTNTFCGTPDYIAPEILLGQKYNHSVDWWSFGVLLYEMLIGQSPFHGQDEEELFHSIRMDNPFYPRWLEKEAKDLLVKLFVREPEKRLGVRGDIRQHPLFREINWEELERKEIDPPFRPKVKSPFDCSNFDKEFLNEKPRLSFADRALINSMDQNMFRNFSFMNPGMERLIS

Row | Compound | pIC50
1 | Cc1c(Nc2c(C#N)cncc2-c2ccc(OCCNCCN(C)C)cc2)ccc2[nH]ccc12 [Compound 417, 5-[4-(2-{[2-(dimethylamino)ethyl]amino}ethoxy)phenyl]-4-[(4-methyl-1H-indol-5-yl)amino]nicotinonitrile] | 8.22

Same assay, conditions: human PKCθ full length enzyme, IMAP; average value; read-out: IC50 PKCθ IMAP

Row | Compound | pIC50
2 | N#Cc1cncc(-c2cccc(Br)c2)c1Nc1cccc2c1CC(=O)N2 [Compound 346, 5-(3-bromophenyl)-4-[(2-oxo-2,3-dihydro-1H-indol-4-yl)amino]nicotinonitrile] | 6.27
3 | N#Cc1cncc(-c2cccc(-c3ccc(CN4CCCCC4)s3)c2)c1Nc1ccc2[nH]ccc2c1 [Compound 186, 4-(1H-indol-5-ylamino)-5-{3-[5-(piperidin-1-ylmethyl)-2-thienyl]phenyl}nicotinonitrile] | 6.85
4 | COc1ccc(-c2cncc(C#N)c2Nc2cccc3[nH]ccc23)cc1OCCNCCc1c[nH]cn1 [Compound 339, 5-[3-(2-{[2-(1H-imidazol-4-yl)ethyl]amino}ethoxy)-4-methoxyphenyl]-4-(1H-indol-4-ylamino)nicotinonitrile] | 8.00
5 | 4-(1H-indol-4-ylamino)-5-(4-methoxy-3-{2-[(3-pyrrolidin-1-ylpropyl)amino]ethoxy}phenyl)nicotinonitrile [Compound 340] | 8.10
6 | Cc1c(Nc2c(C#N)cncc2-c2cc3cc(CN4CCCCC4)ccc3s2)ccc2[nH]ccc12 [Compound 228, 4-[(4-methyl-1H-indol-5-yl)amino]-5-[5-(piperidin-1-ylmethyl)-1-benzothien-2-yl]nicotinonitrile] | 8.70
7 | Cc1ccc(-c2cccc(-c3cncc(C#N)c3Nc3ccc4[nH]ccc4c3)c2)cc1 [Compound 128, 4-(1H-indol-5-ylamino)-5-(4′-methylbiphenyl-3-yl)nicotinonitrile] | 6.89
8 | COc1ccc(-c2cncc(C#N)c2Nc2ccc3[nH]ccc3c2)cc1OCCN(C(C)C)C(C)C [Compound 180, 5-{3-[2-(diisopropylamino)ethoxy]-4-methoxyphenyl}-4-(1H-indol-5-ylamino)nicotinonitrile] | 6.16
9 | N#Cc1cncc(-c2cc3cc(CNCc4cccnc4)ccc3s2)c1Nc1cccc2[nH]ccc12 [Compound 289, 4-(1H-indol-4-ylamino)-5-(5-{[(pyridin-3-ylmethyl)amino]methyl}-1-benzothien-2-yl)nicotinonitrile] | 8.40
10 | COc1ccc(-c2cncc(C#N)c2Nc2ccc3[nH]c(C)cc3c2)cc1OC [Compound 110, 5-(3,4-dimethoxyphenyl)-4-[(2-methyl-1H-indol-5-yl)amino]nicotinonitrile] | 7.19
11 | N#Cc1cncc(-c2cccc(-c3ccc(C(=O)NC4CCCCC4)cc3)c2)c1Nc1ccc2[nH]ccc2c1 [Compound 202, 3′-[5-cyano-4-(1H-indol-5-ylamino)pyridin-3-yl]-N-cyclohexylbiphenyl-4-carboxamide] | 6.47
12 | COc1ccc(-c2cncc(C#N)c2Nc2ccc3[nH]ccc3c2)cc1OCCN(CCO)CCO [Compound 237, 5-(3-{2-[bis(2-hydroxyethyl)amino]ethoxy}-4-methoxyphenyl)-4-(1H-indol-5-ylamino)nicotinonitrile] | 5.36
13 | CN(C)S(=O)(=O)c1cccc(-c2cncc(C#N)c2Nc2cccc3[nH]ccc23)c1 [Compound 313, 3-[5-cyano-4-(1H-indol-4-ylamino)pyridin-3-yl]-N,N-dimethylbenzenesulfonamide] | 7.70
14 | N#Cc1cncc(-c2cccc(C(F)(F)F)c2)c1Nc1cccc2[nH]ccc12 [Compound 310, 4-(1H-indol-4-ylamino)-5-[3-(trifluoromethyl)phenyl]nicotinonitrile] | 7.70
15 | N#Cc1cncc(-c2ccccc2)c1Nc1ccc2[nH]ccc2c1 [Compound 257, 4-(1H-indol-5-ylamino)-5-phenylnicotinonitrile] | 7.00
16 | N#Cc1cncc(-c2cc3cc(CNCCc4ccccc4)ccc3s2)c1Nc1cccc2[nH]ccc12 [Compound 287, 4-(1H-indol-4-ylamino)-5-(5-{[(2-phenylethyl)amino]methyl}-1-benzothien-2-yl)nicotinonitrile] | 8.52
17 | COc1ccc(-c2cncc(C#N)c2Nc2ccc3[nH]ncc3c2)cc1OC [Compound 379, 5-(3,4-dimethoxyphenyl)-4-(1H-indazol-5-ylamino)nicotinonitrile] | 5.60
18 | N#Cc1cncc(-c2cccc(-c3ccc(C(=O)NCc4ccncc4)cc3)c2)c1Nc1ccc2[nH]ccc2c1 [Compound 214, 3′-[5-cyano-4-(1H-indol-5-ylamino)pyridin-3-yl]-N-(pyridin-4-ylmethyl)biphenyl-4-carboxamide] | 6.60
19 | COc1ccc(-c2cncc(C#N)c2Nc2ccc3[nH]ccc3c2)cc1OCCNCCc1ccccc1 [Compound 242, 4-(1H-indol-5-ylamino)-5-(4-methoxy-3-{2-[(2-phenylethyl)amino]ethoxy}phenyl)nicotinonitrile] | 7.70
20 | CCC(CC)NC(=O)c1ccc(-c2cccc(-c3cncc(C#N)c3Nc3ccc4[nH]ccc4c3)c2)cc1 [Compound 198, 3′-[5-cyano-4-(1H-indol-5-ylamino)pyridin-3-yl]-N-(1-ethylpropyl)biphenyl-4-carboxamide] | 6.48
21 | N#Cc1cncc(-c2ccc3c(c2)OCO3)c1Nc1ccc2[nH]ccc2c1 [Compound 260, 5-(1,3-benzodioxol-5-yl)-4-(1H-indol-5-ylamino)nicotinonitrile] | 7.15
22 | N#Cc1cncc(-c2cccc(-c3ccc(C(=O)NCCCO)cc3)c2)c1Nc1ccc2[nH]ccc2c1 [Compound 210, 3′-[5-cyano-4-(1H-indol-5-ylamino)pyridin-3-yl]-N-(3-hydroxypropyl)biphenyl-4-carboxamide] | 5.59
23 | Cc1c(Nc2c(C#N)cncc2-c2cccc(OCCCCN3CCN(C)CC3)c2)ccc2[nH]ccc12 [Compound 502, 4-[(4-methyl-1H-indol-5-yl)amino]-5-{3-[4-(4-methylpiperazin-1-yl)butoxy]phenyl}nicotinonitrile] | 7.68
24 | N#Cc1cncc(-c2ccc(Br)cc2)c1Nc1ccc2[nH]ccc2c1 [Compound 116, 5-(4-bromophenyl)-4-(1H-indol-5-ylamino)nicotinonitrile] | 7.15
25 | COc1ccc(-c2cncc(C#N)c2Nc2cccc3c2CC(=O)N3)cc1OC [Compound 329, 5-(3,4-dimethoxyphenyl)-4-[(2-oxo-2,3-dihydro-1H-indol-4-yl)amino]nicotinonitrile] | 5.09

Now from value to compound:

Row | pIC50 | Compound
26 | 7.89 | Cc1c(Nc2c(C#N)cncc2-c2ccc(OCCN3CCCN(C)CC3)cc2)ccc2[nH]ccc12 [Compound 426, 5-{4-[2-(4-methyl-1,4-diazepan-1-yl)ethoxy]phenyl}-4-[(4-methyl-1H-indol-5-yl)amino]nicotinonitrile]
27 | 7.42 | Cc1c(Nc2c(C#N)cncc2-c2ccc3sccc3c2)ccc2[nH]ccc12 [Compound 594, 5-(benzo[b]thiophen-5-yl)-4-(4-methyl-1H-indol-5-ylamino)nicotinonitrile]
28 | 7.24 | Cc1c(Nc2c(C#N)cncc2-c2ccc3cc[nH]c3c2)ccc2[nH]ccc12 [Compound 588, 5-(1H-indol-6-yl)-4-[(4-methyl-1H-indol-5-yl)amino]nicotinonitrile]
29 | 7.06 | Cc1c(Nc2c(C#N)cncc2-c2csc3ccccc23)ccc2[nH]ccc12 [Compound 585, 5-(1-benzothiophen-3-yl)-4-[(4-methyl-1H-indol-5-yl)amino]nicotinonitrile]
30 | 7.89 | Cc1c(Nc2c(C#N)cncc2-c2ccc(OCCCN3CCCCC3)cc2)ccc2[nH]ccc12 [Compound 474, 4-[(4-methyl-1H-indol-5-yl)amino]-5-[4-(3-piperidin-1-ylpropoxy)phenyl]nicotinonitrile]
31 | 7.22 | Cc1c(Nc2c(C#N)cncc2-c2ccnc(CN3CCOCC3)c2)ccc2[nH]ccc12 [Compound 453, 4-[(4-methyl-1H-indol-5-yl)amino]-2′-(morpholin-4-ylmethyl)-3,4′-bipyridine-5-carbonitrile]
32 | 7.52 | Cc1c(Nc2c(C#N)cncc2-c2ccc(N3CCOCC3)nc2)ccc2[nH]ccc12 [Compound 507, 4-[(4-methyl-1H-indol-5-yl)amino]-6′-morpholin-4-yl-3,3′-bipyridine-5-carbonitrile]
33 | 7.70 | COc1ccc(-c2cncc(C#N)c2Nc2cnc3[nH]ccc3c2Cl)cc1OC [Compound 522, 4-[(4-chloro-1H-pyrrolo[2,3-b]pyridin-5-yl)amino]-5-(3,4-dimethoxyphenyl)nicotinonitrile]
34 | 8.22 | CCOCCNCCOc1ccc(-c2cncc(C#N)c2Nc2ccc3[nH]ccc3c2C)cc1 [Compound 416, 5-(4-{2-[(2-ethoxyethyl)amino]ethoxy}phenyl)-4-[(4-methyl-1H-indol-5-yl)amino]nicotinonitrile]
35 | 8.52 | Cc1cc2[nH]ccc2cc1Nc1c(C#N)cncc1-c1cc2cc(CO)ccc2o1 [Compound 499, 5-[5-(hydroxymethyl)-1-benzofuran-2-yl]-4-[(6-methyl-1H-indol-5-yl)amino]nicotinonitrile]
36 | 7.30 | Cc1c(Nc2c(C#N)cncc2-c2cccc(N)c2)ccc2[nH]ccc12 [Compound 572, 5-(3-aminophenyl)-4-[(4-methyl-1H-indol-5-yl)amino]nicotinonitrile]
37 | 8.40 | Cc1c(Nc2c(C#N)cncc2-c2cc3cc(CN4CCC(N5CCOCC5)CC4)ccc3o2)ccc2[nH]ccc12 [Compound 395, 4-[(4-methyl-1H-indol-5-yl)amino]-5-{5-[(4-morpholin-4-ylpiperidin-1-yl)methyl]-1-benzofuran-2-yl}nicotinonitrile]
38 | 7.01 | Cc1c(Nc2c(C#N)cncc2-c2cncn2C)ccc2[nH]ccc12 [Compound 564, 5-(1-methyl-1H-imidazol-5-yl)-4-[(4-methyl-1H-indol-5-yl)amino]nicotinonitrile]
39 | 5.31 | COc1ccc(-c2cncc(C#N)c2N[C@H]2CC[C@@H](N)CC2)cc1OC [Compound 446, 4-[(cis-4-aminocyclohexyl)amino]-5-(3,4-dimethoxyphenyl)nicotinonitrile]
40 | 5.39 | COc1ccc(-c2cncc(C#N)c2N[C@H]2CC[C@H](N)CC2)cc1OC [Compound 524, 4-[(trans-4-aminocyclohexyl)amino]-5-(3,4-dimethoxyphenyl)nicotinonitrile]
